Test results from article PMC11871328 (Communications Biology, 2025).

Key:
[1] = test system: MCF-7 breast cancer cells; assay: MTT cell viability assay, MCF-7; assay type: cell-based, human; details: in words
BAG-1:HSP70 interaction = details: in words; from earlier studies; cited from earlier work
[2] = in words; from earlier studies; cited from earlier work

SMILES | Effect on viability of MCF-7 cells [1] | Inhibition of BAG-1:HSP70 interaction (BAG-1:HSP70 interaction) | Solubility in water [2]
N=C(N)NCCC[C@H](NC(=O)CN)C(=O)N[C@@H](CCCCN)C(=O)N[C@@H](CCCCN)C(=O)N[C@@H](CCCNC(=N)N)C(=O)N[C@@H](CCCNC(=N)N)C(=O)N[C@@H](CCC(N)=O)C(=O)N[C@@H](CCCNC(=N)N)C(=O)N[C@@H](CCCNC(=N)N)C(=O)N[C@@H](CCCNC(=N)N)C(=O)N1CCC[C@H]1C(=O)N[C@@H](CCC(N)=O)C(N)=O [TAT only] | did not affect the viability of the cells | – | –
CCNc1ccc(-c2nc3ccc(C)cc3s2)cc1 [Thio-2, N-Ethyl-4-(6-methyl-1,3-benzothiazol-2-yl)aniline] | – | moderate inhibition | poor solubility in water
